We go through one compound from patent publication US20240277860A1, “CAMPTOTHECIN PEPTIDE CONJUGATES” (priority 2019, published 2024).

Holding throughout (assay type): cell-based
The subject of assay [1] is renal carcinoma cells (786-O). The assay is described as follows: In vitro potency, CellTiter-Glo growth inhibition, 786-O. The settings on record: Homo sapiens, 786-0; camptothecin free drugs; 96 h, CellTiter-Glo; read-out: IC50 786-O. The method, then:
(§1) In vitro potency was assessed on multiple cancer cell lines. All cell lines were authenticated by STR profiling at IDEXX Bioresearch and cultured for no more than 2 months after resuscitation. Cells cultured in log-phase growth were seeded for 24 hours in 96-well plates containing 150 μl RPMI 1640 supplemented with 20% FBS. Serial dilutions of antibody-drug conjugates in cell culture media were prepared at 4× working concentrations, and 50 μl of each dilution was added to the 96-well plates. Following addition of test articles, cells were incubated with test articles for 4 days at 37° C. After 96 hours, growth inhibition was assessed by CellTiter-Glo® (Promega, Madison, WI) and luminescence was measured on a plate reader. The IC50 value, determined in triplicate, is defined here as the concentration that results in 50% reduction in cell growth relative to untreated controls.
(§2) In the following Tables IC50 values for ADCs and campthothecin free drugs are given in ng/mL and […] concentrations, respectively. Cell viability was determined by CellTiter-Glo staining after 96 h exposure to ADC. ND=Not Determined. Ag1 is an antibody targeting a ubiquitous and readily internalizable antigen on cancer cells.
Background: ATP-based viability assays read luminescence as a measure of living cells.

Assay [2] concerns pancreatic cancer cells (BxPC3). In words: In vitro potency, CellTiter-Glo growth inhibition, BxPC3. As to conditions: Homo sapiens, BXPC-3; camptothecin free drugs; 96 h, CellTiter-Glo; read-out: IC50 BxPC3. As for the experimental part:
as §1, §2

For assay [3], the system named is MDR(−) acute promyelocytic leukemia cells (HL-60). In words: In vitro potency, CellTiter-Glo growth inhibition, HL-60. The settings on record: Homo sapiens, HL-60; camptothecin free drugs; 96 h, CellTiter-Glo; read-out: IC50 HL-60. The method, then: as §1, §2
The test system of assay [4] is MDR(+) acute promyelocytic leukemia cells (HL60/RV). The assay is described as follows: In vitro potency, CellTiter-Glo growth inhibition, HL60/RV. As to conditions: Homo sapiens, HL-60; camptothecin free drugs; 96 h, CellTiter-Glo; read-out: IC50 HL60/RV. As for the experimental part: as §1, §2
Assay [5] concerns Hodgkin's lymphoma cells (L540cy). In words: In vitro potency, CellTiter-Glo growth inhibition, L540cy. The settings on record: camptothecin free drugs, 96 h, CellTiter-Glo, read-out: IC50 L540cy. The method, then:
as §1, §2

The subject of assay [6] is multiple myeloma cells (MM.1R). In words: In vitro potency, CellTiter-Glo growth inhibition, MM.1R. As to conditions: camptothecin free drugs, 96 h, CellTiter-Glo, read-out: IC50 MM.1R. As for the experimental part: as §1, §2
The subject of assay [7] is acute myeloid leukemia cells (MOLM13). The assay is described as follows: In vitro potency, CellTiter-Glo growth inhibition, MOLM-13. The settings on record: Homo sapiens, MOLM-13; camptothecin free drugs; 96 h, CellTiter-Glo; read-out: IC50 MOLM-13. The method, then:
as §1, §2

The subject of assay [8] is Burkitt's lymphoma cells (Ramos). The assay is described as follows: In vitro potency, CellTiter-Glo growth inhibition, Ramos. As to conditions: Homo sapiens, camptothecin free drugs, 96 h, CellTiter-Glo, read-out: IC50 Ramos. The method, then: as §1, §2
For assay [9], the system named is melanoma cells (SK-MEL-5). The assay is described as follows: In vitro potency, CellTiter-Glo growth inhibition, SK-MEL-5. The settings on record: Homo sapiens, SK-MEL-5; camptothecin free drugs; 96 h, CellTiter-Glo; read-out: IC50 SK-MEL-5. The method, then:
as §1, §2

Assay [10] concerns B-lymphocyte cancer cells (SU-DHL-4). The assay is described as follows: In vitro potency, CellTiter-Glo growth inhibition, SU-DHL-4. The settings on record: Homo sapiens, SU-DHL-4; camptothecin free drugs; 96 h, CellTiter-Glo; read-out: IC50 SU-DHL-4. The method, then:
as §1, §2

Assay [11] deals with B-lymphocyte cancer cells (U266). In words: In vitro potency, CellTiter-Glo growth inhibition, U-266. The settings on record: Homo sapiens, U-266; camptothecin free drugs; 96 h, CellTiter-Glo; read-out: IC50 U-266. As for the experimental part: as §1, §2

pIC50: −log10 of the molar value.

For the compound `CC[C@@]1(O)C(=O)OCc2c1cc1n(c2=O)Cc2c-1nc1cc3c(cc1c2CNC(=O)[C@@H](N)Cc1c[nH]c2ccccc12)OCO3` [Compound 3n], the pIC50 in assay [1] was 7.08; in assay [2], 6.84; in [3], 6.28; in assay [4] it was under 6.00; in assay [5], 6.73; in [6] it was 7.13. Further, the pIC50 was 7.10 in [7]; 7.74 in assay [8]; 6.48 in assay [9]; 7.57 in [10]; 7.21 in [11].
